Results: US20080119513A1, “Sulfonamide Derivative Selectively Inhibiting Mmp-13” (priority 2004, published 2008)

Legend:
Type in all cases: biochemical
MMP-8 = target: T1, MMP-8 (Homo sapiens, UniProt P22894); assay: Assay for inhibitory activities on MMPs (fluorogenic peptide substrate), MMP-8
T1 construct: In regard to MMP-8, catalytic domain (^99Phe˜^262Gly) was amplified with PCR; His-tag; enterokinase digestion-site
Text: In regard to MMP-8, catalytic domain (^99Phe˜^262Gly) was amplified with PCR using commercial available Human Bone Marrow cDNA. This was cloned in Escherichia coli expression vector pTrc99AHE inserted with His-tag sequence and enterokinase digestion-site, induced and expressed by IPTG (Isopropyl-β-D-thiogalactopyranoside) and expressed in a insoluble fraction (Than F. Ho, M. Walid Qoronfleh, Robert C. Wahl, Trica A. Pulvino, Karen J. Vavra, Joe Falvo, Tracey M. Banks, Patricia G. Brake and Richard B. Ciccarelli: Gene expression, purification and characterization of recombinant human neutrophil collagenase. Gene 146, (1994) 297-301. It was prepared by the method in a slight modification). Isolation of MMP-8 from an insoluble fraction was carried out by dissolving in modifier (6 M urea) by a usual method and purification with metal chelate chromatography. And then removing modifier (6 M urea) with dialysis and refolding of the enzyme spontaneously gave activated MMP-8.
(§1) The enzymatic activity on MMPs was analyzed by the method described in “C. Graham Knight, Frances Willenbrock and Gillian Murphy: A novel coumarin-labelled peptide for sensitive continuous assays of the matrix metalloproteinases: FEBS LETT., 296, (1992), 263-266”. The substrate: MOCAc-Pro-Leu-Gly-Leu-A2Pr(DNP)-Ala-Arg-NH2 was purchased from Peptide Institute, Inc., Osaka, Japan. The measurement of the inhibitory activities (IC50) was carried out by the following four methods;
(§2) (A) Reaction with substrate, enzyme (MMPs) and inhibitor
(§3) (B) Reaction with substrate and inhibitor, without enzyme
(§4) (C) Reaction with substrate and enzyme (MMPs), without inhibitor
(§5) (D) Reaction with substrate only
(§6) IC50 values were calculated by using the following formula and each fluorescence values of above four methods (A to D).
(§7) % inhibition={1-(A−B)/(C−D)}×100
(§8) IC50 means the concentration required to inhibit 50% of the enzyme activity.
(§9) The value of inhibitory activity against MMP-2, MMP-8, MMP-9, MMP-12, and MMP-13 measured by above mentioned methods are shown in Table 25 and 26.

MMP-13 = target: T2, MMP-13 (Homo sapiens, UniProt P45452); assay: Assay for inhibitory activities on MMPs (fluorogenic peptide substrate), MMP-13
T2 construct: catalytic domain (^104Tyr˜^267Gly) was amplified with RT-PCR; His-tag; enterokinase digestion-site
Protocol: In regard to MMP-13, mRNA was prepared from carcinoma cell SW1353 derived from human cartilage stimulate by IL-1 and TNF, and catalytic domain (^[…]) was amplified with RT-PCR. This was cloned in Escherichia coli expression vector […] inserted with His-tag sequence and enterokinase digestion-site, induced and expressed by IPTG (Isopropyl-β-D-thiogalactopyranoside) and expressed in an insoluble fraction. Isolation of MMP-13 from an insoluble fraction was carried out by dissolving in modifier (6 M urea) by a usual method and purification with metal chelate chromatography (Ni […] Sepharose). And then removing modifier (6 M urea) with dialyze and refolding of the enzyme spontaneously gave activated MMP-13. The enzymatic activity on MMPs was analyzed by the method described in “C. Graham Knight, Frances Willenbrock and Gillian Murphy: A novel coumarin-labelled peptide for sensitive continuous assays of the matrix metalloproteinases: FEBS LETT., 296, (1992), 263-266”. The substrate: MOCAc-[…] was purchased from Peptide Institute, Inc., Osaka, Japan. The measurement of the inhibitory activities (IC50) was carried out by the following four methods; (A) Reaction with substrate, enzyme (MMPs) and inhibitor (B) Reaction with substrate and inhibitor, without enzyme (C) Reaction with substrate and enzyme (MMPs), without inhibitor (D) Reaction with substrate only IC50 values were calculated by using the following formula and each fluorescence values of above four methods (A to D). % inhibition={1-(A-B)/(C-D)}×100 IC50 means the concentration required to inhibit 50% of the enzyme activity. The value of inhibitory activity against MMP-2, MMP-8, MMP-9, MMP-12, and MMP-13 measured by above mentioned methods are shown in Table 25 and 26.

MMP-2 = target: T3, MMP-2 (Homo sapiens, UniProt P08253); assay: Assay for inhibitory activities on MMPs (fluorogenic peptide substrate), MMP-2
T3 sequence (P08253 110-660): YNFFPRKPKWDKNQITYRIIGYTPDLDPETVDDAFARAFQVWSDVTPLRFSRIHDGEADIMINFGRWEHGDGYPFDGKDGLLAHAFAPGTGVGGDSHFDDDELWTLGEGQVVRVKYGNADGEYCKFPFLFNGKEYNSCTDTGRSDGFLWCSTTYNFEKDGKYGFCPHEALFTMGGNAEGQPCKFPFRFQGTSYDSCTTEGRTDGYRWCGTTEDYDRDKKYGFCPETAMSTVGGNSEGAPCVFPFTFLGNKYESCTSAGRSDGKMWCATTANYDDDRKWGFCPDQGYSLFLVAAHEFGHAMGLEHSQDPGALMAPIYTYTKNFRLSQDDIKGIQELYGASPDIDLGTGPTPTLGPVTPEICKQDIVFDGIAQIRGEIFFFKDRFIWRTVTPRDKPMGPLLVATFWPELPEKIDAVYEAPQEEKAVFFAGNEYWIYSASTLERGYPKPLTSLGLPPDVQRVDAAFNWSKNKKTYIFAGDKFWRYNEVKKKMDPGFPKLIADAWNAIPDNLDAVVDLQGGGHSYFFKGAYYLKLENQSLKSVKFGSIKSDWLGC
Protocol: MMP-2 was purchased from Calbiochem-Novabiochem International, Inc.
as §1, §2, §3, §4, §5, §6, §7, §8, §9

MMP-12 = target: T4, MMP-12 (Homo sapiens, UniProt P39900); assay: Assay for inhibitory activities on MMPs (fluorogenic peptide substrate), MMP-12
T4 construct: In regard to MMP-12, catalytic domain (^100Phe˜^263Gly) was amplified with RT-PCR; His-tag; enterokinase digestion-site
T4 sequence (P39900 100-263): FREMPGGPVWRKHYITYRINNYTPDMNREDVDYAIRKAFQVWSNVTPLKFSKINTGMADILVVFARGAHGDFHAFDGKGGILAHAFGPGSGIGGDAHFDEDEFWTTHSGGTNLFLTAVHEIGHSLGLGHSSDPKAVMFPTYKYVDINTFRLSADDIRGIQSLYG
Protocol: In regard to MMP-12, catalytic domain (^100Phe˜^263Gly) was amplified with RT-PCR from Human Placenta Total RNA. This was cloned in Escherichia coli expression vector pTrc99AHE inserted with His-tag sequence and enterokinase digestion-site, induced and expressed by IPTG (Isopropyl-β-D-thiogalactopyranoside) and expressed in an insoluble fraction. Isolation of MMP-12 from an insoluble fraction was carried out by dissolving in modifier (6 M urea) by a usual method and purification with metal chelate chromatography (Ni Chelateing Sepharose). And then removing modifier (6 M urea) with dialysis and refolding of the enzyme spontaneously gave activated MMP-12.
as §1, §2, §3, §4, §5, §6, §7, §8, §9

MMP-9 = MMP-9 (Homo sapiens, UniProt P14780); assay: Assay for inhibitory activities on MMPs (fluorogenic peptide substrate), MMP-9
Sequence of MMP-9 (P14780 107-707): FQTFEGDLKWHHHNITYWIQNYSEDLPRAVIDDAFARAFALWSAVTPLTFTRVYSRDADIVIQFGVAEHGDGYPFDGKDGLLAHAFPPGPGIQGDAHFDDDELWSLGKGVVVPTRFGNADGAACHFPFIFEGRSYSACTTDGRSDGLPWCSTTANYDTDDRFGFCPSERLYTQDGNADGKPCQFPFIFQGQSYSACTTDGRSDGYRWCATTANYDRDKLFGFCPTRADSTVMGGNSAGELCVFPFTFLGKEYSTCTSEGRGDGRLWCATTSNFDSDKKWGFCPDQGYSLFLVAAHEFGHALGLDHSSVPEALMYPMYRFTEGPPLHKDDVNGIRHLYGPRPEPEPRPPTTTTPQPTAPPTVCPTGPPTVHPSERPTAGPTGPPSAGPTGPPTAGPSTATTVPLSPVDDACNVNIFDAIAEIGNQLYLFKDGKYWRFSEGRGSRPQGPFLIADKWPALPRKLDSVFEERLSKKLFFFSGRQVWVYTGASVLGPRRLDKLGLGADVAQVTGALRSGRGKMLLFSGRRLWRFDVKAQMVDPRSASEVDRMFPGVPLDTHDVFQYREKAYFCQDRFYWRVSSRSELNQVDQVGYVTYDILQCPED
Text: MMP-9 was isolated and purified by the procedure of Y. Okada et al. (Yasunori Okada, Yukio Gonoji, Katsumi Naka, Katsuro Tomita, Isao Nakanishi, Kazushi Iwata, Kyoko Yamashita, and Taro Hayakawa: Matrix metalloproteinase 9 (92-kDa gelatinase/type IV collagenase) from HT1080 human fibrosarcoma cells. Purification and activation of the precursor and enzymic properties, J. Biol. Chem., 1992, 267, 21712-21719) in combination with other following methods: 1) Yasunori Okada, Tatsuhisa Morodomi, Jan J, Enghild, Ko Suzuki, Atsushi Yasui, Isao Nakanishi, Guy Salvesen and Hideaki Nagase: Matrix metalloproteinase 2 from human rheumatoid synovial fibroblasts. Purification and activation of the precursor and enzymic properties, Eur. J. Biochem., 1990, 194, 721-730; 2) Robin V Ward, Rosalind M Hembry, John J Reynolds and Gillian Murphy: The purification of tissue inhibitor of metalloproteinase-2 from its 72 kDa progelatinase complex. Biochem. J., 1991, 278, 179-187. In detail, human fibrosarcoma ATCC HT1080 cell line was cultured to confluent in Dulbecco's Modified Medium (DMEM) containing 10% fetal-calf serum at 37° C. for 48 hours. Subsequently, the medium of confluent culture was changed to serum-free DMEM medium. To obtain MMP-9, phorbol-12-myristate-13-acetate (TPA) must be added to this serum-free DMEM medium at a concentration of 50 ng/ml. The TPA-treated medium was centrifuged at 3000 rpm for 15 min, and the supernatant was concentrated to 450 ml by a Toyo-Roshi UP-20 apparatus with an ultrafiltration membrane. Then, proMMP-9 in this concentrated solution was purified by using columns of Gelatin-Sepharose and Concanavalin A-Sepharose. The pool containing proMMP-9 was dialyzed, concentrated (Toyo-Roshi UP-20) and applied to columns of Sephacryl S-200 and Green A matrix for the separation from TIMPs. The obtained proMMP-9 fraction was activated by TPCK-Trypsin (Final conc.: 3 μg/501 React Mix.).
as §1, §2, §3, §4, §5, §6, §7, §8, §9

T1 sequence (P22894 99-262): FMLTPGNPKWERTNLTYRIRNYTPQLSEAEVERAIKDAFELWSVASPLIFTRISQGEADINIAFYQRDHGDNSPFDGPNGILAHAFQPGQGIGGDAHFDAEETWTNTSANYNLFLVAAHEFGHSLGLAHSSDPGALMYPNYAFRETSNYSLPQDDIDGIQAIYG

| SMILES | IC50 (MMP-8) | IC50 (MMP-13) | IC50 (MMP-2) | IC50 (MMP-12) | IC50 (MMP-9) |
| --- | --- | --- | --- | --- | --- |
| COc1ccc2cc(C#Cc3ccc(-c4ccc(S(=O)(=O)NC(Cc5ccc(F)cc5)C(=O)O)cc4)cc3)ccc2c1 (stereo not drawn) [III-47] | > 10000 nM | 143 nM | > 10000 nM | > 10000 nM | > 10000 nM |
| COc1ccc2cc(C#Cc3ccc(-c4ccc(S(=O)(=O)N[C@H](Cc5ccccc5)C(=O)O)cc4)cc3)ccc2c1 [III-28] | > 5000 nM | 15.7 nM | > 5000 nM | 2200 nM | > 5000 nM |
| COCC(NS(=O)(=O)c1ccc(-c2ccc(C#Cc3ccc4cc(OC)ccc4c3)cc2)cc1)C(=O)O (stereo not drawn) [III-50] | 243 nM | 13.8 nM | 50.6 nM | 125 nM | > 10000 nM |
| COc1cccc(C(=O)Nc2ccc(-c3ccc(S(=O)(=O)N[C@H](Cc4ccccc4)C(=O)O)cc3)cc2)c1 [VI-5] | 623 nM | 50.1 nM | 660 nM | 1230 nM | > 10000 nM |
| COc1ccc2cc(C#Cc3ccc(-c4ccc(S(=O)(=O)N[C@H](C(=O)O)C(C)C)cc4)cc3)ccc2c1 [III-21] | 36.9 nM | 5.73 nM | > 4000 nM | 58.3 nM | > 10000 nM |
| COc1ccc(C(=O)Nc2ccc(-c3ccc(S(=O)(=O)N[C@H](C)C(=O)O)cc3)cc2)cc1 [VI-15] | > 10000 nM | 55.5 nM | 222 nM | 801 nM | > 10000 nM |
| CCC(C)[C@H](NS(=O)(=O)c1ccc(-c2ccc(C#Cc3ccc4cc(OC)ccc4c3)cc2)cc1)C(=O)O (stereo partly drawn) [III-23] | 41.6 nM | 16.3 nM | 602 nM | 50.7 nM | > 10000 nM |
| CC(C)(C)[C@H](NS(=O)(=O)c1ccc(-c2ccc(NC(=O)c3cc4ccccc4s3)cc2)cc1)C(=O)O [VI-49] | 158 nM | 10 nM | 241 nM | 98.8 nM | > 10000 nM |
| O=C(/C=C/c1ccccc1)Nc1ccc(-c2ccc(S(=O)(=O)N[C@H](Cc3ccccc3)C(=O)O)cc2)cc1 [VI-9] | > 10000 nM | 44.6 nM | 178 nM | > 10000 nM | > 10000 nM |
